Assay results as given in patent EP0745599A2, “1-(3-Heterocyclylphenyl)-s-triazine-2,4,6-oxo or thiotrione herbicidal agents” (American Cyanamid Company, priority 1995, dated 1996).

Key:
Format in all cases: in vivo
Details in all cases: rated four to five weeks after treatment
[1] = test system: ECHINOCHLOA CRUS-GALLI, (L) BEAU; assay: Postemergence herbicidal evaluation, ECHCG (Barnyardgrass)
Summary of the method: (§1)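 Seedlings grown about two weeks in jiffy flats were sprayed through a nozzle at 40 psi with compound dispersed in 50/50 acetone/water plus 0.5% TWEEN®20, at about 0.125 to 0.500 kg/ha. Plants were kept in the greenhouse and rated visually 0–9 versus control four to five weeks after treatment; replicate tests averaged.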

[2] = test system: GLYCINE MAX(L)MERR. CV. WILLIAMS; assay: Preemergence herbicidal evaluation, GLXMAW (Soybean, Williams)
Summary of the method: (§2)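 Preemergence soil spray, aqueous acetone, ~0.125–0.50 kg/ha; greenhouse, 4–5 wk; visual 0-9 rating vs untreated control (stand, vigor, malformation, size, chlorosis, appearance).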

ZEA MAYS L. [3] = assay: Preemergence herbicidal evaluation, ZEAMX (Corn, Field)
Summary of the method: as §2

CHENOPODIUM ALBUM, L. [4] = assay: Preemergence herbicidal evaluation, CHEAL (Lambsquarters, Common)
Summary of the method: as §2

CHENOPODIUM ALBUM, L. [5] = assay: Postemergence herbicidal evaluation, CHEAL (Lambsquarters, Common)
Experimental: (§3) In the tests, seedling plants are grown in jiffy flats for about two weeks. The test compounds are dispersed in 50/50 acetone/water mixtures containing 0.5% TWEEN®20, a polyoxyethylene sorbitan monolaurate surfactant of Atlas Chemical Industries, in sufficient quantities to provide the equivalent of about 0.125 kg to 0.500 kg per hectare of active compound when applied to the plants through a spray nozzle operating at 40 psi for a predetermined time. After spraying, the plants are placed on greenhouse benches and are cared for in the usual manner, commensurate with conventional greenhouse practices. From four to five weeks after treatment, the seedling plants are examined and rated according to the rating system set forth below. Where more than one test is involved for a given compound, the data are averaged.
(§4) Results of herbicide evaluation are expressed on a rating scale (0-9). The scale is based upon a visual observation of plant stand, vigor, malformation, size, chlorosis and overall plant appearance as compared with a control.

IPOMOEA SPP. = assay: Preemergence herbicidal evaluation, IPOSS (Morningglory Spp.)
Summary of the method: as §2

CASSIA OBTUSIFOLIA, L. = assay: Preemergence herbicidal evaluation, CASOB (Sicklepod)
Summary of the method: as §2

[6] = test system: ECHINOCHLOA CRUS-GALLI, (L) BEAU; assay: Preemergence herbicidal evaluation, ECHCG (Barnyardgrass)
Summary of the method: as §2

[7] = test system: SETARIA VIRIDIS, (L) BEAU; assay: Preemergence herbicidal evaluation, SETVI (Foxtail, Green)
Summary of the method: as §2

[8] = test system: AMBROSIA ARTEMISIIFOLIA, L.; assay: Preemergence herbicidal evaluation, AMBEL (Ragweed, Common)
Summary of the method: as §2

[9] = test system: ORYZA SATIVA, L. TEBONNET; assay: Preemergence herbicidal evaluation, ORYSAT (Rice, Tebonnet)
Summary of the method: as §2

[10] = test system: TRITICUM AESTIVUM, CV. APOLLO; assay: Preemergence herbicidal evaluation, TRZAWO (Wheat, Winter, CV. APOLLO)
Summary of the method: as §2

[11] = test system: ABUTILON THEOPHRASTI, MEDIC.; assay: Postemergence herbicidal evaluation, ABUTH (Velvetleaf)
Experimental: as §3, §4

ZEA MAYS L. [12] = assay: Postemergence herbicidal evaluation, ZEAMX (Corn, Field)
Experimental: as §3, §4

GALIUM APARINE = assay: Preemergence herbicidal evaluation, GALAP (Galium)
Summary of the method: as §2

[13] = test system: ORYZA SATIVA, L. TEBONNET; assay: Postemergence herbicidal evaluation, ORYSAT (Rice, Tebonnet)
Experimental: as §3, §4

[14] = test system: ABUTILON THEOPHRASTI, MEDIC.; assay: Preemergence herbicidal evaluation, ABUTH (Velvetleaf)
Summary of the method: as §2

[15] = test system: SETARIA VIRIDIS, (L) BEAU; assay: Postemergence herbicidal evaluation, SETVI (Foxtail, Green)
Summary of the method: as §1

## CC(C)OC(=O)Cn1c(=O)n(C)c(=O)n(-c2cc(N3C(=O)c4cccc(F)c4C3=O)c(F)cc2Cl)c1=O [Compound 11, Isopropyl 3-[2-chloro-4-fluoro-5-(3-fluoro-phthalimido)phenyl]tetrahydro-5-methyl-2,4,6-trioxo-s-triazine-1(2H)-acetate]
[1]; 0.125 kg/ha
  Herbicide rating (0-9) ECHCG: 3.0
[1]; 0.250 kg/ha
  Herbicide rating (0-9) ECHCG: 3.0
[1]; 0.500 kg/ha
  Herbicide rating (0-9) ECHCG: 3.0
[2]; 0.125 kg/ha
  Herbicide rating (0-9) GLXMAW: 0.0
[2]; 0.250 kg/ha
  Herbicide rating (0-9) GLXMAW: 0.0
[2]; 0.500 kg/ha
  Herbicide rating (0-9) GLXMAW: 0.0
ZEA MAYS L. [3]; 0.125 kg/ha
  Herbicide rating (0-9) ZEAMX: 0.0
ZEA MAYS L. [3]; 0.250 kg/ha
  Herbicide rating (0-9) ZEAMX: 0.0
ZEA MAYS L. [3]; 0.500 kg/ha
  Herbicide rating (0-9) ZEAMX: 0.0
CHENOPODIUM ALBUM, L. [4]; 0.125 kg/ha
  Herbicide rating (0-9) CHEAL: 9.0
CHENOPODIUM ALBUM, L. [4]; 0.250 kg/ha
  Herbicide rating (0-9) CHEAL: 9.0
CHENOPODIUM ALBUM, L. [4]; 0.500 kg/ha
  Herbicide rating (0-9) CHEAL: 9.0
CHENOPODIUM ALBUM, L. [5]; 0.125 kg/ha
  Herbicide rating (0-9) CHEAL: 9.0
CHENOPODIUM ALBUM, L. [5]; 0.250 kg/ha
  Herbicide rating (0-9) CHEAL: 9.0
CHENOPODIUM ALBUM, L. [5]; 0.500 kg/ha
  Herbicide rating (0-9) CHEAL: 9.0
IPOMOEA SPP.; 0.125 kg/ha
  Herbicide rating (0-9) IPOSS: 0.0
IPOMOEA SPP.; 0.250 kg/ha
  Herbicide rating (0-9) IPOSS: 0.0
IPOMOEA SPP.; 0.500 kg/ha
  Herbicide rating (0-9) IPOSS: 0.0
CASSIA OBTUSIFOLIA, L.; 0.125 kg/ha
  Herbicide rating (0-9) CASOB: 0.0
CASSIA OBTUSIFOLIA, L.; 0.250 kg/ha
  Herbicide rating (0-9) CASOB: 0.0
CASSIA OBTUSIFOLIA, L.; 0.500 kg/ha
  Herbicide rating (0-9) CASOB: 0.0
[6]; 0.125 kg/ha
  Herbicide rating (0-9) ECHCG: 0.0
[6]; 0.250 kg/ha
  Herbicide rating (0-9) ECHCG: 0.0
[6]; 0.500 kg/ha
  Herbicide rating (0-9) ECHCG: 0.0
[7]; 0.125 kg/ha
  Herbicide rating (0-9) SETVI: 0.0
[7]; 0.250 kg/ha
  Herbicide rating (0-9) SETVI: 0.0
[7]; 0.500 kg/ha
  Herbicide rating (0-9) SETVI: 0.0
[8]; 0.125 kg/ha
  Herbicide rating (0-9) AMBEL: 0.0
[8]; 0.250 kg/ha
  Herbicide rating (0-9) AMBEL: 0.0
[8]; 0.500 kg/ha
  Herbicide rating (0-9) AMBEL: 0.0
[9]; 0.125 kg/ha
  Herbicide rating (0-9) ORYSAT: 0.0
[9]; 0.250 kg/ha
  Herbicide rating (0-9) ORYSAT: 0.0
[9]; 0.500 kg/ha
  Herbicide rating (0-9) ORYSAT: 0.0
[10]; 0.125 kg/ha
  Herbicide rating (0-9) TRZAWO: 0.0
[10]; 0.250 kg/ha
  Herbicide rating (0-9) TRZAWO: 0.0
[10]; 0.500 kg/ha
  Herbicide rating (0-9) TRZAWO: 0.0

## CC(C)OC(=O)Cn1c(=O)n(C)c(=O)n(-c2cc(N3C(=O)C4=C(CCCC4)C3=O)c(F)cc2Cl)c1=O [Compound 4, Isopropyl 3-[2-chloro-5-(1-cyclohexene-1,2-dicarboximido)-4-fluorophenyl]tetrahydro-5-methyl-2,4,6-trioxo-s-triazine-1(2H)-acetate]
[11]; 0.125 kg/ha
  Herbicide rating (0-9) ABUTH: 9.0
[11]; 0.250 kg/ha
  Herbicide rating (0-9) ABUTH: 9.0
[11]; 0.500 kg/ha
  Herbicide rating (0-9) ABUTH: 9.0
ZEA MAYS L. [12]; 0.125 kg/ha
  Herbicide rating (0-9) ZEAMX: 4.5
ZEA MAYS L. [12]; 0.250 kg/ha
  Herbicide rating (0-9) ZEAMX: 4.5
ZEA MAYS L. [12]; 0.500 kg/ha
  Herbicide rating (0-9) ZEAMX: 4.5
[2]; 0.125 kg/ha
  Herbicide rating (0-9) GLXMAW: 0.0
[2]; 0.250 kg/ha
  Herbicide rating (0-9) GLXMAW: 0.0
[2]; 0.500 kg/ha
  Herbicide rating (0-9) GLXMAW: 0.0
CHENOPODIUM ALBUM, L. [4]; 0.125 kg/ha
  Herbicide rating (0-9) CHEAL: 9.0
CHENOPODIUM ALBUM, L. [4]; 0.250 kg/ha
  Herbicide rating (0-9) CHEAL: 9.0
CHENOPODIUM ALBUM, L. [4]; 0.500 kg/ha
  Herbicide rating (0-9) CHEAL: 9.0
GALIUM APARINE; 0.125 kg/ha
  Herbicide rating (0-9) GALAP: 9.0
GALIUM APARINE; 0.250 kg/ha
  Herbicide rating (0-9) GALAP: 9.0
GALIUM APARINE; 0.500 kg/ha
  Herbicide rating (0-9) GALAP: 9.0
[6]; 0.125 kg/ha
  Herbicide rating (0-9) ECHCG: 0.0
[6]; 0.250 kg/ha
  Herbicide rating (0-9) ECHCG: 0.0
[6]; 0.500 kg/ha
  Herbicide rating (0-9) ECHCG: 0.0
[13]; 0.125 kg/ha
  Herbicide rating (0-9) ORYSAT: 4.0
[13]; 0.250 kg/ha
  Herbicide rating (0-9) ORYSAT: 4.0
[13]; 0.500 kg/ha
  Herbicide rating (0-9) ORYSAT: 4.0

## COC(=O)Cn1c(=O)n(C)c(=O)n(-c2cc(N3C(=O)C4=C(CCCC4)C3=O)c(F)cc2F)c1=O [Compound 10, Methyl 3-[5-(1-cyclohexene-1,2-dicarbox-imido)-2,4-difluorophenyl]-5-methyl-2,4,6-trioxo-s-triazine-1(2H)-acetate]
ZEA MAYS L. [12]; 0.125 kg/ha
  Herbicide rating (0-9) ZEAMX: 4.0
ZEA MAYS L. [12]; 0.250 kg/ha
  Herbicide rating (0-9) ZEAMX: 4.0
ZEA MAYS L. [12]; 0.500 kg/ha
  Herbicide rating (0-9) ZEAMX: 4.0
[1]; 0.125 kg/ha
  Herbicide rating (0-9) ECHCG: 0.0
[1]; 0.250 kg/ha
  Herbicide rating (0-9) ECHCG: 0.0
[1]; 0.500 kg/ha
  Herbicide rating (0-9) ECHCG: 0.0
[2]; 0.125 kg/ha
  Herbicide rating (0-9) GLXMAW: 0.0
[2]; 0.250 kg/ha
  Herbicide rating (0-9) GLXMAW: 0.0
[2]; 0.500 kg/ha
  Herbicide rating (0-9) GLXMAW: 0.0
ZEA MAYS L. [3]; 0.125 kg/ha
  Herbicide rating (0-9) ZEAMX: 0.0
ZEA MAYS L. [3]; 0.250 kg/ha
  Herbicide rating (0-9) ZEAMX: 0.0
ZEA MAYS L. [3]; 0.500 kg/ha
  Herbicide rating (0-9) ZEAMX: 0.0
IPOMOEA SPP.; 0.125 kg/ha
  Herbicide rating (0-9) IPOSS: 0.0
IPOMOEA SPP.; 0.250 kg/ha
  Herbicide rating (0-9) IPOSS: 0.0
IPOMOEA SPP.; 0.500 kg/ha
  Herbicide rating (0-9) IPOSS: 0.0
[8]; 0.125 kg/ha
  Herbicide rating (0-9) AMBEL: 0.0
[8]; 0.250 kg/ha
  Herbicide rating (0-9) AMBEL: 0.0
[8]; 0.500 kg/ha
  Herbicide rating (0-9) AMBEL: 0.0
[14]; 0.250 kg/ha
  Herbicide rating (0-9) ABUTH: 0.0
[14]; 0.500 kg/ha
  Herbicide rating (0-9) ABUTH: 0.0
[15]; 0.125 kg/ha
  Herbicide rating (0-9) SETVI: 0.0
[15]; 0.250 kg/ha
  Herbicide rating (0-9) SETVI: 0.0
[15]; 0.500 kg/ha
  Herbicide rating (0-9) SETVI: 0.0
[10]; 0.125 kg/ha
  Herbicide rating (0-9) TRZAWO: 0.0
[10]; 0.250 kg/ha
  Herbicide rating (0-9) TRZAWO: 0.0
[10]; 0.500 kg/ha
  Herbicide rating (0-9) TRZAWO: 0.0
